Assay [1] deals with T1, Recombinant full-length human IDO1 (Homo sapiens, UniProt P14902).
T1 construct: Recombinant full-length human IDO1 with a N-terminal hexahistidine tag; hexahistidine (N); made in house; host or cells: E. coli
In words: IDO1 enzymatic assay (NFK quantified by LCMS). The assay is classed as biochemical. To be noted: 2 nM enzyme, 5 μM L-tryptophan, 30 min pre-incubation, pH6.5; mean if measured multiple times; read-out: hIDO activity (IC50 in nM). Summed up: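 His-tagged full-length IDO1 (E. coli, 2 nM final) in pH 6.5 phosphate with ascorbate, methylene blue and catalase was preincubated 30 min at RT with compound (10 µM–0.5 nM, 0.6% DMSO), then run 30 min at RT with 5 µM L-Trp. NFK was measured by LCMS against a d5-Trp standard. IC50 came from a four-parameter fit of duplicates.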

Assay [2] deals with T2, Recombinant human TDO comprising amino acids 19-407 (Homo sapiens, UniProt P48775).
T2 construct: human TDO comprising amino acids 19-407; hexahistidine (N); made in house; host or cells: E. coli
T2 sequence (P48775 19-406 limits assumed): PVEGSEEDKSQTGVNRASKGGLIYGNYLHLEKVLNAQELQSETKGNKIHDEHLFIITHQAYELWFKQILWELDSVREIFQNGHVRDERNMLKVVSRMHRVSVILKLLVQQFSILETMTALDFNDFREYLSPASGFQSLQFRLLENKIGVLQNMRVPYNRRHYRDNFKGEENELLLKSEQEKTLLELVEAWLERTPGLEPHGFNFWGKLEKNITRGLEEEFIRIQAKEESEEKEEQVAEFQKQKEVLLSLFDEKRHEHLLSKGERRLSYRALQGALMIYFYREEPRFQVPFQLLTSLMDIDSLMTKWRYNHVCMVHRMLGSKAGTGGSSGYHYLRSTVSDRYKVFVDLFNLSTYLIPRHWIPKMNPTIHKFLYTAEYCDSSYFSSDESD
In words: TDO2 enzymatic assay (NFK quantified by LCMS). The format is biochemical. To be noted: 15 nM enzyme, 200 μM L-tryptophan, 30 min pre-incubation, pH7; mean if measured multiple times; read-out: hTDO activity (IC50 in nM). Summed up:
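E. coli-expressed N-terminal His-tagged TDO (15 nM) in pH 7 phosphate buffer with ascorbate and catalase, preincubated 30 min at RT with compound (10 μM to 0.5 nM, 0.6% DMSO). Reaction started with 200 μM L-tryptophan for 30 min at RT; NFK measured by LCMS against deuterated internal standard, IC50 by four-parameter fit, duplicates.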

In a further assay the target is T3, IDO1 in SKOV3 cells (Homo sapiens, UniProt P14902).
T3 construct: SKOV3 cells (NCI, No. 0503405) which upregulate IDO1 after stimulation with IFNγ; host or cells: SKOV3 cells stimulated with IFNγ
T3 sequence (P14902 whole entry): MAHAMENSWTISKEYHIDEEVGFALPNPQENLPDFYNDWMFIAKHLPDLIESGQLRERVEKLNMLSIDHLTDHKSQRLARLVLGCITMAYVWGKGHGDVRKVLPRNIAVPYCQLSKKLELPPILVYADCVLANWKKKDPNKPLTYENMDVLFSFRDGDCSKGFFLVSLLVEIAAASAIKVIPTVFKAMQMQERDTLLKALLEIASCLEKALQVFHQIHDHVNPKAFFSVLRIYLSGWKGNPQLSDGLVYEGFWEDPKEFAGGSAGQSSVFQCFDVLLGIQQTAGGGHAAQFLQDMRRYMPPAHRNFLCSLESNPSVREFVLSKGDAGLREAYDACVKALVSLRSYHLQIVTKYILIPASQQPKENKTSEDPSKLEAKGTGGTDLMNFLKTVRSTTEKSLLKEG
In words: Cell-based IDO inhibitory activity in IFNγ-stimulated SKOV3 cells (NFK + kynurenine by LCMS). To be noted: IFNγ 50 ng/ml, 200 uM L-tryptophan, 24 hours. Summed up: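 SKOV3 cells (4000/well, pre-cultured 24 h) were treated with compound (10 uM-40 nM) plus 200 uM L-tryptophan and 50 ng/ml IFNγ for 24 h at 37° C. N-formylkynurenine plus kynurenine in supernatant was measured by LCMS against a d5-tryptophan internal standard. IC50 was fitted against 0.2% DMSO and reference-inhibitor controls, in duplicate, with repeat measurements averaged.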

T1 sequence (P14902 whole entry): as above

Broadly, the IC50 is the point on the concentration scale where inhibition reaches its midpoint. For `Cc1c(C(O)c2c(Cl)ccc3cncn23)nnn1-c1ccc(O)c(F)c1` (racemic) [Example 48, rac-4-{4-[(6-Chloro-imidazo[1,5-a]pyridin-5-yl)-hydroxy-methyl]-5-methyl-[1,2,3]triazol-1-yl}-2-fluoro-phenol], the values for the IC50 (in assay [1]; in assay [2]; at IDO1 in SKOV3 cells) were 2.29 nM, 1460 nM and 29 nM, respectively.

In the case of `OC(c1ccn(-c2ccccc2)n1)c1c(Cl)ccc2cncn12` (racemic) [Ref2, rac-(6-Chloro-imidazo[1,5-a]pyridin-5-yl)-(1-phenyl-1H-pyrazol-3-yl)-methanol, reference compound], the values for the IC50 (in assay [1]; in assay [2]; at IDO1 in SKOV3 cells) were 433 nM, above 10200 nM and 2940 nM, respectively.

`OC(c1cnn(-c2ccccc2)n1)c1c(Cl)ccc2cncn12` (racemic) [Ref3, rac-(6-Chloro-imidazo[1,5-a]pyridin-5-yl)-(2-phenyl-2H-[1,2,3]triazol-4-yl)-methanol, reference compound]: the IC50 is 161 nM in assay [1], 8920 nM in assay [2] and above 10000 nM on IDO1 in SKOV3 cells.

Take `OC(c1ccc(-c2ccccc2)s1)c1c(Cl)ccc2cncn12` (racemic) [Ref4, rac-(6-Chloro-imidazo[1,5-a]pyridin-5-yl)-(5-phenyl-thiophen-2-yl)-methanol, reference compound]: the IC50 in assay [1] is 275 nM; in assay [2], 8650 nM; at IDO1 in SKOV3 cells, 8830 nM.

Take `Oc1ccc(-n2cc(C(O)c3c(C4CC4)ccc4cncn34)nn2)cc1Cl` (single isomer, unassigned) [Example 7a]: the IC50 was 2.12 nM in assay [1], above 10200 nM in assay [2] and 4.84 nM at IDO1 in SKOV3 cells.

With `O[C@@H](c1cn(-c2ccccc2)nn1)c1c(Cl)ccc2cncn12` [Example 1a, (R)-(6-Chloro-imidazo[1,5-a]pyridin-5-yl)-(1-phenyl-1H-[1,2,3]triazol-4-yl)-methanol], the IC50 came out at 5.07 nM in assay [1], 9110 nM in assay [2] and 193 nM on IDO1 in SKOV3 cells.

Turning to `Cc1ccc2cncn2c1[C@@H](O)c1cn(-c2ccccc2)nn1` [Example 2a, (R)-(6-Methyl-imidazo[1,5-a]pyridin-5-yl)-(1-phenyl-1H-[1,2,3]triazol-4-yl)-methanol], the IC50 in assay [1] was 4.29 nM; in assay [2], above 10200 nM; at IDO1 in SKOV3 cells, 84.9 nM.

Consider `O[C@@H](c1cn(-c2ccccc2)nn1)c1c(C2CC2)ncc2cncn12` [Example 3a, (R)-(6-Cyclopropyl-imidazo[1,5-a]pyrazin-5-yl)-(1-phenyl-1H-[1,2,3]triazol-4-yl)-methanol], for which the IC50 in assay [1] was 16.7 nM; in assay [2], above 10200 nM; at IDO1 in SKOV3 cells, 282 nM.

Take `Oc1ccc(-n2cc([C@@H](O)c3c(C4CC4)ccc4cncn34)nn2)cc1Cl` [Example 7b, 2-Chloro-4-{4-[(S)-(6-cyclopropyl-imidazo[1,5-a]pyridin-5-yl)-hydroxy-methyl]-[1,2,3]triazol-1-yl}-phenol]: the results for the half-inhibitory concentration (IC50) (in assay [1]; in assay [2]; on IDO1 in SKOV3 cells) were 361 nM, above 10200 nM and 703 nM, respectively.

As to `COc1ccc(-n2cc([C@H](O)c3c(C4CC4)ccc4cncn34)nn2)cc1Cl` [Example 8a, (R)-[1-(3-Chloro-4-methoxy-phenyl)-1H-[1,2,3]triazol-4-yl]-(6-cyclopropyl-imidazo[1,5-a]pyridin-5-yl)-methanol], the values for the IC50 (in assay [1]; in assay [2]; at IDO1 in SKOV3 cells) were 9.85 nM, above 10200 nM and 18.9 nM, respectively.

Turning to `Oc1ccc(-n2cc([C@H](O)c3c(C4CC4)ncc4cncn34)nn2)cc1Cl` [Example 10a, 2-Chloro-4-{4-[(R)-(6-cyclopropyl-imidazo[1,5-a]pyrazin-5-yl)-hydroxy-methyl]-[1,2,3]triazol-1-yl}-phenol], the IC50 in assay [1] is 2.93 nM; in assay [2], above 10200 nM; on IDO1 in SKOV3 cells, 12.5 nM.

Turning to `COc1ccc(-n2cc([C@H](O)c3c(C4CC4)ncc4cncn34)nn2)cc1Cl` [Example 11a, (R)-[1-(3-Chloro-4-methoxy-phenyl)-1H-[1,2,3]triazol-4-yl]-(6-cyclopropyl-imidazo[1,5-a]pyrazin-5-yl)-methanol], the IC50 in assay [1] was 8.17 nM; in assay [2], above 10200 nM; at IDO1 in SKOV3 cells it was 23.7 nM.

Turning to `COc1ccc(-n2nnc([C@H](O)c3c(Cl)ccc4cncn34)c2C)cc1` [Example 20a, (R)-(6-Chloro-imidazo[1,5-a]pyridin-5-yl)-[1-(4-methoxy-phenyl)-5-methyl-1H-[1,2,3]triazol-4-yl]-methanol], the figures for the IC50 (in assay [1]; in assay [2]; at IDO1 in SKOV3 cells) were 1.84 nM, 2190 nM and 10.7 nM, respectively.

For `COc1ccc(-n2cc([C@H](O)c3c(C4CC4)ncc4cncn34)nn2)cc1F` [Example 21, (R)-(6-Cyclopropyl-imidazo[1,5-a]pyrazin-5-yl)-[1-(3-fluoro-4-methoxy-phenyl)-1H-[1,2,3]triazol-4-yl]-methanol], the IC50 in assay [1] was 8.24 nM; in assay [2], above 10200 nM; at IDO1 in SKOV3 cells, 33.2 nM.

As for `COc1cc(F)c(-n2cc([C@H](O)c3c(C4CC4)ncc4cncn34)nn2)cc1F` [Example 22, (R)-(6-Cyclopropyl-imidazo[1,5-a]pyrazin-5-yl)-[1-(2,5-difluoro-4-methoxy-phenyl)-1H-[1,2,3]triazol-4-yl]-methanol], the IC50 is 6.36 nM in assay [1], above 10200 nM in assay [2] and 20.2 nM on IDO1 in SKOV3 cells.

Regarding `COCc1ccc(-n2cc([C@H](O)c3c(C4CC4)ncc4cncn34)nn2)cc1` [Example 24, (R)-(6-Cyclopropyl-imidazo[1,5-a]pyrazin-5-yl)-[1-(4-methoxymethyl-phenyl)-1H-[1,2,3]triazol-4-yl]-methanol], the IC50 in assay [1] is 8.36 nM; in assay [2] it was above 10200 nM; on IDO1 in SKOV3 cells, 399 nM.

As to `COc1cc(F)c(-n2cc([C@H](O)c3c(C4CC4)ncc4cncn34)nn2)cc1Cl` [Example 25, (R)-[1-(5-Chloro-2-fluoro-4-methoxy-phenyl)-1H-[1,2,3]triazol-4-yl]-(6-cyclopropyl-imidazo[1,5-a]pyrazin-5-yl)-methanol], the values for the IC50 (in assay [1]; in assay [2]; on IDO1 in SKOV3 cells) were 5.86 nM, above 10200 nM and 33 nM, respectively.

On to `COc1c(F)cc(-n2cc([C@H](O)c3c(C4CC4)ncc4cncn34)nn2)cc1Cl` [Example 26, (R)-[1-(3-Chloro-5-fluoro-4-methoxy-phenyl)-1H-[1,2,3]triazol-4-yl]-(6-cyclopropyl-imidazo[1,5-a]pyrazin-5-yl)-methanol], for which the figures for the IC50 (in assay [1]; in assay [2]; at IDO1 in SKOV3 cells) were 4.5 nM, above 10200 nM and 74.3 nM, respectively.

As for `Oc1ccc(-n2cc([C@H](O)c3c(C4CC4)ncc4cncn34)nn2)cc1F` [Example 27, 4-{4-[(R)-(6-Cyclopropyl-imidazo[1,5-a]pyrazin-5-yl)-hydroxy-methyl]-[1,2,3]triazol-1-yl}-2-fluoro-phenol], the IC50 in assay [1] was 5.6 nM; in assay [2], above 10200 nM; on IDO1 in SKOV3 cells it was 47.4 nM.

In the case of `O[C@@H](c1cn(-c2ccc(OCC3(F)COC3)c(F)c2)nn1)c1c(C2CC2)ncc2cncn12` [Example 28, (R)-(6-Cyclopropyl-imidazo[1,5-a]pyrazin-5-yl)-{1-[3-fluoro-4-(3-fluoro-oxetan-3-ylmethoxy)-phenyl]-1H-[1,2,3]triazol-4-yl}-methanol], the IC50 in assay [1] was 6.28 nM; in assay [2], above 10200 nM; at IDO1 in SKOV3 cells it was 19.5 nM.

As to `CC(C)(O)COc1ccc(-n2cc([C@H](O)c3c(C4CC4)ncc4cncn34)nn2)cc1F` [Example 29, 1-(4-{4-[(R)-(6-Cyclopropyl-imidazo[1,5-a]pyrazin-5-yl)-hydroxy-methyl]-[1,2,3]triazol-1-yl}-2-fluoro-phenoxy)-2-methyl-propan-2-ol], the IC50 in assay [1] was 7.74 nM; in assay [2], above 10200 nM; at IDO1 in SKOV3 cells, 29.9 nM.

Turning to `COc1ccc(-n2cc([C@H](O)c3c(Cl)ccc4cncn34)nn2)cc1` [Example 30, (R)-(6-Chloro-imidazo[1,5-a]pyridin-5-yl)-[1-(4-methoxy-phenyl)-1H-[1,2,3]triazol-4-yl]-methanol], the IC50 was 3.68 nM in assay [1], 8600 nM in assay [2] and 52.4 nM on IDO1 in SKOV3 cells.

For `COc1cc(F)c(-n2cc([C@H](O)c3c(Cl)ccc4cncn34)nn2)cc1F` [Example 31, (R)-(6-Chloro-imidazo[1,5-a]pyridin-5-yl)-[1-(2,5-difluoro-4-methoxy-phenyl)-1H-[1,2,3]triazol-4-yl]-methanol], the IC50 in assay [1] was 1.13 nM; in assay [2], above 10200 nM; on IDO1 in SKOV3 cells it was 9.2 nM.

The values are drawn from US20220259212A1, “INHIBITORS OF INDOLEAMINE 2,3-DIOXYGENASE AND/OR TRYPTOPHAN 2,3-DIOXYGENASE” (Idorsia Pharmaceuticals Ltd, priority 2019, published 2022).
